What was measured:
[1] = test system: NCI-N87 human gastric cancer; assay: NCI-N87 human gastric cancer xenografts in nude mice; assay type: in vivo; settings: 10 μg/day s.c.
Procedure: NCI-N87 cancers were transplanted s.c. into both flank areas of 30 female nude mice. The mice were randomly assigned into 4 experimental groups with 6 to 9 animals in each group and received single daily injections for 77 days as follows: 1. Control (vehicle solution); 2. JMR-132 (10 μg/day s.c.); 3. Peptide 1109 (10 μg/day s.c.); 4. Peptide 11479 (10 μg/day s.c.). Tumor volumes were measured once a week. The experiment was ended on day 77 by sacrificing the mice under Isoflurane anesthesia. Resulting tumors were cleaned, weighed, and snap-frozen until further analyses. Statistical analyses of the measurement results were done by two-tailed t-test, p<0.05 being considered significant. Data are presented as the means±S.E.

[2] = test system: H-460 human non-small cell lung cancer; assay: H-460 human non-SCLC xenografts in nude mice, Experiment 3; assay type: in vivo; settings: 28 days
Procedure: Male nude mice were implanted s.c. with 3 mm^3 pieces of H-460 human non-SCLC tumor tissue on both flanks. When tumors had grown to a mean volume of approximately 90 mm^3, the mice were randomly assigned into 8 experimental groups with 8 to 10 animals in each group and received single daily injections for 28 days as follows: 1. Control (vehicle solution); 2. JMR-132 (10 μg/day s.c.); 3. Peptide 11123 (5 μg/day s.c.); 4. Peptide 11125 (5 μg/day s.c.); 5. Peptide 11307 (5 μg/day s.c.); 6. Peptide 11317 (5 μg/day s.c.); 7. Peptide 11473 (5 μg/day s.c.); 8. Peptide 11485 (5 μg/day s.c.). Tumor volumes were measured once a week. The experiment was ended on day 28 by sacrificing the mice under Isoflurane anesthesia. Resulting tumors were cleaned, weighed, and snap-frozen until further analyses. Statistical analyses of the measurement results were done by two-tailed t-test, p<0.05 being considered significant.

| Substance | Number of regressing tumors ([1]; 77 days) | Tumor growth after 77 days (%) ([1]; 77 days, means±S.E.) | Tumor weights ([1]; day 77, means±S.E.) [mg] | Tumor doubling time ([1]; calculated without the regressing tumors) [days] | Tumor growth inhibition after 4 weeks (%) ([2]; 5 μg/day s.c.) | Inhibition of H-460 lung tumor growth compared with reference peptide JMR-132 ([2]; 5 μg/day vs JMR-132 10 μg/day) |
| --- | --- | --- | --- | --- | --- | --- |
| [(Ac-Ada)^0-Tyr^1, D-Arg^2, (Phe(F)5)^6, Ala^8, Har^9, Tyr(Me)^10, His^11, Orn^12, Abu^15, His^20, Orn^21, Nle^27, D-Arg^28, Har^29]hGH-RH(1-29)NH2 [Peptide 11479] | 1 | 235 ± 48 | 144 ± 41 | 156.7 ± 55.7 | – | – |
| [(Ac-Ada)^0-Tyr^1, D-Arg^2, Cpa^6, Ala^8, Har^9, Tyr(Me)^10, His^11, Abu^15, His^20, Nle^27, D-Arg^28, Har^29-Ada^30]hGH-RH(1-29)NH2 [Peptide 11317] | – | – | – | – | 41.00 | more potently inhibited the growth of H-460 lung tumors than the reference peptide JMR-132 |

— US9260504B2, “N- and C-terminal substituted antagonistic analogs of GH-RH” (University of Miami, priority 2008, dated 2016)
